Experimental findings from US8940350B2, “Cereal compositions comprising high-potency sweeteners” (The Coca-Cola Company, priority 2005, dated 2015) are described below.

The nature of the data set: Rate of dissolution in H2O at 25° C. of rebaudioside A polymorph and amorphous forms. The note with it: grade in words. It is filed as physicochemical.

For the substance rebaudioside A [Form 1], the “Rate of dissolution in H2O at 25° C.” value is on record as “Very low”.
To rebaudioside A [Form 3] belongs “High”; to rebaudioside A [Form 2], “Intermediate”.
To rebaudioside A [Form 4] belongs “High”.
